Measurements published in article doi:10.1101/2025.05.10.653276 (bioRxiv, 2025).
Read-outs that look alike come from different tables or passages of the source.

Tests used:
[1] = test system: B. ovis; test: microbe, parasite or virus in culture; format: cell-based; details: Brucella ovis
[2] = test system: B. ovis; test: microbe, parasite or virus in culture; format: cell-based, Brucella ovis; details: for IC50: Brucella ovis
[3] = in vitro; details: human
[4] = test system: B. ovis; format: cell-based, Brucella ovis
[5] = test system: B. ovis; format: cell-based, Brucella ovis; remark: listed apart in the source
[6] = test system: B. abortus; test: microbe, parasite or virus in culture; format: cell-based, Brucella abortus; details: for IC50: Brucella abortus, 48 h, read-out: IC50, axenic B. abortus WT (Fig. S6B)
[7] = test system: B. abortus; test: microbe, parasite or virus in culture; format: cell-based; details: Brucella abortus, THP-1, 48 h, read-out: IC50, intracellular B. abortus
[8] = test system: B. abortus; format: cell-based, Brucella abortus
[9] = test system: THP-1 cells
[10] = test system: THP-1 cells; format: cell-based, human
[11] = test system: L-type Ca^2+ channels; details: read-out: Reported IC50 for L-type Ca^2+ channels; cited from earlier work
[12] = test system: B. abortus; format: cell-based, Brucella abortus; remark: listed apart in the source
[13] = test system: B. ovis; format: cell-based, Brucella ovis; remark: listed apart in the source
[14] = THP-1, read-out: Intracellular IC50
[15] = THP-1, 48 h, read-out: IC50, intracellular B. ovis growth
[16] = 48 h, read-out: IC50, axenic B. ovis growth

N[C@@H]1C[C@H]1c1ccccc1 (racemic) [Tranylcypromine]
IC50 [1, 14]: > 50 µM
IC50 ([2]; read-out: Axenic IC50): > 50 µM
CC50 [3]: > 50 µM

O=C1CCc2ccc(OCCCCN3CCN(c4cccc(Cl)c4Cl)CC3)cc2N1 [Aripiprazole]
CC50 [3]: 12 µM

c1ccc(-c2ccc(C(c3ccccc3)n3ccnc3)cc2)cc1 (stereo not shown) [Bifonazole]
IC50 [1, 14]: 14 µM
IC50 ([2]; read-out: Axenic IC50): 4 µM
CC50 [3]: > 50 µM

C[C@H](CCC(=O)NCCC[N+](C)(C)CCCS(=O)(=O)[O-])[C@H]1CC[C@H]2[C@@H]3[C@H](O)C[C@@H]4C[C@H](O)CC[C@]4(C)[C@H]3C[C@H](O)[C@]12C [CHAPS]
Sensitivity of WT B. ovis on TSA blood plates [4]: highly sensitive

COCCOC(=O)C1=C(C)NC(C)=C(C(=O)OC/C=C/c2ccccc2)C1c1cccc([N+](=O)[O-])c1 (stereo not shown) [Cilnidipine]
IC50 [1, 15]: 2.5 µM
IC50 [1, 14]: 2 µM
Concentrations inhibiting B. ovis growth in complex liquid broth [2]: above 5 μM
IC50 [2, 16]: 5.09 µM
IC50 ([2]; read-out: Axenic IC50): 5 µM
Growth of WT B. ovis in liquid culture (kinetic growth assay) [5]: failed to grow
Sensitivity of WT and ΔbepE B. abortus in axenic conditions [6]: insensitive
IC50 [6]: > 25 µM
IC50 [7]: 13.5 µM
CFU recovery of ΔbepE B. abortus relative to wild-type in treated THP-1 cells [8]: significant reduction in CFU recovery
Host cytotoxicity in B. ovis-infected THP-1 cells [9]: not due to host cytotoxicity
CC50 [3]: > 50 µM

OCCN(CCO)c1nc(N2CCCCC2)c2nc(N(CCO)CCO)nc(N3CCCCC3)c2n1 [Dipyridamole]
IC50 [1, 14]: > 50 µM
IC50 ([2]; read-out: Axenic IC50): > 50 µM
CC50 [3]: 41 µM

CCCCN(CCCC)CCC(O)c1cc2c(Cl)cc(Cl)cc2c2cc(C(F)(F)F)ccc12 (stereo not shown) [Halofantrine]
IC50 [1, 14]: > 50 µM
IC50 ([2]; read-out: Axenic IC50): 11 µM
CC50 [3]: > 50 µM

COc1ccc(CN2CCN(C(c3ccc(F)cc3)c3ccc(F)cc3)CC2)c(OC)c1OC [Lomerizine]
IC50 [1, 14]: 9 µM
IC50 ([2]; read-out: Axenic IC50): > 50 µM
CC50 [3]: 50 µM

COC(=O)C1=C(C)NC(C)=C(C(=O)OCCN(C)Cc2ccccc2)C1c1cccc([N+](=O)[O-])c1 (stereo not shown) [Nicardipine]
IC50 [1, 15]: 2.3 µM
IC50 [1, 14]: 2 µM
Effect on terminal density of B. ovis in axenic culture [2]: did not affect the terminal density
IC50 [2, 16]: > 25 µM
IC50 ([2]; read-out: Axenic IC50): > 50 µM
Increase in intracellular calcium and manganese levels [10]: 20–40%
Growth of WT B. ovis in liquid culture (kinetic growth assay) [5]: modest lag
Sensitivity of WT and ΔbepE B. abortus in axenic conditions [6]: insensitive
IC50 [6]: > 25 µM
IC50 [7]: 4.4 µM
WT B. abortus CFUs recovered from treated THP-1 cells compared to untreated controls [8]: significantly fewer
Host cytotoxicity in B. ovis-infected THP-1 cells [9]: not due to host cytotoxicity
IC50 [11]: ~25 µM
CC50 [3]: 49 µM

CCOc1ccc(NC(C)=O)cc1 [Phenacetin]
IC50 [1, 14]: > 50 µM
IC50 ([2]; read-out: Axenic IC50): > 50 µM
CC50 [3]: > 50 µM

CC(=O)SCC(Cc1ccccc1)C(=O)NCC(=O)OCc1ccccc1 (stereo not shown) [Racecadotril]
IC50 [1, 14]: > 50 µM
IC50 ([2]; read-out: Axenic IC50): > 50 µM
CC50 [3]: > 50 µM

CCCCCCCCCCCCOS(=O)(=O)[O-].[Na+] [SDS, sodium dodecyl sulfate]
Sensitivity of WT B. ovis on TSA blood plates [4]: highly sensitive

C[C@H](CCC(=O)O)[C@H]1CC[C@H]2[C@@H]3CC[C@@H]4C[C@H](O)CC[C@]4(C)[C@H]3C[C@H](O)[C@]12C [deoxycholate]
Sensitivity of WT B. ovis on TSA blood plates [4]: highly sensitive
Growth of WT B. abortus on solid media [12]: modestly impaired WT growth
Growth of ΔbepE B. abortus on solid media [12]: unable to grow
IC50 (B. abortus strain WT) [6]: 0.067%
IC50 (B. abortus strain ΔbepE glmS::bepDE) [6]: 0.052%
IC50 (B. abortus strain ΔbepE) [6]: 0.021%

COC(=O)C1=C(C)NC(C)=C(C(=O)OC)C1c1ccccc1[N+](=O)[O-] [nifedipine]
Hit in B. ovis intracellular screen [13]: neither compound emerged as a hit

COc1ccc(CCN(C)CCCC(C#N)(c2ccc(OC)c(OC)c2)C(C)C)cc1OC (stereo not shown) [verapamil]
Hit in B. ovis intracellular screen [13]: neither compound emerged as a hit
